Data on five compounds can be found in patent US20240246994A1, “Polymorph Of Imidazolidinone Compound, Preparation Method Therefor And Use Thereof” (Betta Pharmaceuticals Co., Ltd., priority 2021, published 2024).

The IC50 is the point on the concentration scale where inhibition reaches its midpoint. In general, AUC refers to concentration integrated over time. The term Cmax denotes the peak of the concentration-time curve.

Molecules are shown by their SMILES. Where only a bound is given, the exact number is not on record here.

The nature of series [1]: Pressure sensitivity assay (tabletting, XRPD). It counts as physicochemical. To be noted: pressure 200, 300 and 500 kg/cm^2, 3 min.
The nature of series [2]: Grinding sensitivity assay (XRPD). Type of series: physicochemical. To be noted: manual grinding in a mortar, 1 min.
A short description of another series: DVS assay. To be noted: 80% RH, 25° C. It counts as physicochemical. As to the method: A Surface Measurement Systems Dynamic Vapor Sorption Analyzer (model of DVS Resolution) was used with an N2 flow rate: 200 sccm, detection temperature: 25° C., equilibrium time range: 5 min to 360 min, RH gradient: 10% (50% RH to 90% RH, 90% RH to 0% RH to 90% RH), and 5% (90% RH to 95% RH, 95% RH to 90% RH) to obtain dynamic vapor sorption analysis pattern.

A short description of series [3]: Stress testing (influencing factors), total impurity content. Type of series: physicochemical.
Series [4] concerns catalytic subunit of PI3K (α-subunit compared to β-subunit). Particulars: cited from earlier work.
A further series deals with PI3Kα (Homo sapiens, UniProt P42336). In words: PI3Kα kinase assay (ADP-Glo, luminescence). It counts as biochemical. Particulars: final ATP concentration 10 μM; read-out: IC50 of Compound PI3K α. How it is done: (§1) PI3Kα, PI3Kβ, PI3Kγ kinases were enzymatically reacted with their substrates ATP and PIP2:3PS, and the amount of the reaction products were determined to reflect the enzymatic activities of PI3Kα, PI3Kβ, PI3Kγ using ADP-Glo reagent and luminescence method (final ATP concentration of 10 μM). The inhibitory activities of Compound 1 of the present invention on PI3Kα, PI3Kβ and PI3Kγ kinases were tested using the above method.
(§2) Reagents: basic kinase buffer (pH 7.5); PI3Kα, PI3Kβ, PI3Kγ enzyme solutions; solution of PIP2:3PS and ATP; and ADP-Glo kit (containing 10 mM of MgCl2).
(§3) Among them, the buffer components are: 50 mM of Hepes (pH 7.2 to pH 7.5), 3 mM of MgCl2, 1 mM of EGTA, 0.03% of CHAPS, 100 mM of NaCl, and 2 mM of DTT;
(§4) Preparation of compound: Compound 1 of the present application was completely dissolved in DMSO and diluted to a specific concentration so that the final concentration of the compound in the incubation system was 1000 nM, 333 nM, 111 nM, 37 nM, 12.4 nM, 4.1 nM, 1.4 nM, 0.46 nM, 0.15 nM and 0.05 nM (PI3Kα); 30,000 nM, 10,000 nM, 3333 nM, 1111 nM, 370 nM, 123 nM, 41 nM, 13.7 nM, 4.6 nM and 1.5 nM (PI3Kβ, PI3Kγ). […]

The next series addresses PI3Kβ (Homo sapiens, UniProt P42338). In words: PI3Kβ kinase assay (ADP-Glo, luminescence). Type of series: biochemical. Particulars: final ATP concentration 10 μM; read-out: IC50 of Compound PI3K β. As to the method: as §1, §2, §3, §4
The next series addresses PI3Kγ (Homo sapiens, UniProt P48736). The experiment in a line: PI3Kγ kinase assay (ADP-Glo, luminescence). It counts as biochemical. Particulars: final ATP concentration 10 μM; read-out: IC50 of Compound PI3K γ. How it is done:
as §1, §2, §3, §4

Another series concerns MCF-7 cells. The experiment in a line: Cell proliferation assay (CellTiter Glo), MCF-7. It counts as cell-based. Particulars: Homo sapiens, MCF7; 120 h incubation; read-out: IC50 of compounds on MCF-7 cells. As to the method: Method: CellTiter Glo assay method was used to observe the growth inhibitory effect of Compound 1 of the present application on human tumor cells MCF-7 and HGC-27 cultured in vitro.
Assay method: MCF-7 cells were suspended in DMEM medium to form a cell suspension, and the cell concentration was adjusted to 25,000 cells/mL. HGC-27 cells were suspended in RPMI-1640 medium to form a cell suspension, and the cell concentration was adjusted to 5,000 cells/mL. 100 μL of cell suspension was added to a 96-well plate and placed in a CO2 incubator overnight. Compound 1 was completely dissolved in DMSO and 3-fold gradient dilution was performed to obtain a total of 10 concentrations. The 10 concentrations of the compounds to be tested or the DMSO negative control were transferred to the wells containing 100 μL of medium to give final concentrations of the compounds of 30,000 nM, 10,000 nM, 3,333 nM, 1,111 nM, 370 nM, 123 nM, 41 nM, 13.7 nM, and 4.6 nM, respectively. Incubation was performed at 37° C. under 5% CO2 for 96 h for HGC-27 cells and 120 h for MCF-7 cells. Then 100 μL of CellTiter-Glo reagent was added to the above 96-well plate and placed at room temperature for 10 min to stabilize the luminescence signal. The RLU (relative luminescence unit) value was recorded using a VICTOR™ X5 instrument, and then the IC50 value was calculated. […]
On the technique in general: Cellular ATP, detected with luciferase, serves as a proxy for viable cell number.

Series [5] in a line: Pharmacokinetic assay in rats, single gavage. Type of series: in vivo. Particulars: rat, plasma, po, male SD rats, 10 mg/kg. As to the method: Medicament preparation: the control compound, crystal form M of Compound 1 and amorphous form of Compound 2 obtained in Example 1 were weighed and prepared into a 10 mg/mL of solution to be tested in a mixture of 10% of DMSO, 10% of Solutol and 80% of saline; crystal form C of Compound 1 was added into a mixture of 5% of solutol and 95% of 0.5% CMCNa to prepare a 10 mg/mL of solution to be tested.
Assay method: 15 male SD rats with weights: 150 g to 300 g were randomly divided into 5 groups of 3 rats each, and […] of the Example compound was administered by single gavage. The blood was collected through the orbital venous plexus at the designated time points (5 min, 15 min, 30 min, 1 h, 2 h, 4 h, 7 h and 24 h) respectively, and the plasma was separated and stored in a refrigerator at −80° C. for spare use. After precipitation of proteins from the above plasma samples by acetonitrile, the supernatant was extracted and mixed with water at 1:1, and 10 μL of which was taken for LC-MS/MS detection.

Series [6] can be described thus: Stability test of crystal form C (influencing factor, accelerated, long-term). Type of series: physicochemical. The source says: The conditions and methods for the stability test of crystal form C of Compound 1 are mainly based on the requirements of “9001 Guidelines for Stability Test of APIs and Pharmaceutical Preparations” of the fourth part general rules of the 2020 edition of the Chinese Pharmacopoeia, as shown in Table 4. [table]

Setting [7] is: High temperature of 40° C., Day 5.
Setting [8] is: High temperature of 40° C., Day 30.
The mark [9] stands for this setting: High temperature of 60° C., Day 5.
The mark [10] stands for this setting: High temperature of 60° C., Day 30.

PI3Kγ, sequence (P48736 whole entry): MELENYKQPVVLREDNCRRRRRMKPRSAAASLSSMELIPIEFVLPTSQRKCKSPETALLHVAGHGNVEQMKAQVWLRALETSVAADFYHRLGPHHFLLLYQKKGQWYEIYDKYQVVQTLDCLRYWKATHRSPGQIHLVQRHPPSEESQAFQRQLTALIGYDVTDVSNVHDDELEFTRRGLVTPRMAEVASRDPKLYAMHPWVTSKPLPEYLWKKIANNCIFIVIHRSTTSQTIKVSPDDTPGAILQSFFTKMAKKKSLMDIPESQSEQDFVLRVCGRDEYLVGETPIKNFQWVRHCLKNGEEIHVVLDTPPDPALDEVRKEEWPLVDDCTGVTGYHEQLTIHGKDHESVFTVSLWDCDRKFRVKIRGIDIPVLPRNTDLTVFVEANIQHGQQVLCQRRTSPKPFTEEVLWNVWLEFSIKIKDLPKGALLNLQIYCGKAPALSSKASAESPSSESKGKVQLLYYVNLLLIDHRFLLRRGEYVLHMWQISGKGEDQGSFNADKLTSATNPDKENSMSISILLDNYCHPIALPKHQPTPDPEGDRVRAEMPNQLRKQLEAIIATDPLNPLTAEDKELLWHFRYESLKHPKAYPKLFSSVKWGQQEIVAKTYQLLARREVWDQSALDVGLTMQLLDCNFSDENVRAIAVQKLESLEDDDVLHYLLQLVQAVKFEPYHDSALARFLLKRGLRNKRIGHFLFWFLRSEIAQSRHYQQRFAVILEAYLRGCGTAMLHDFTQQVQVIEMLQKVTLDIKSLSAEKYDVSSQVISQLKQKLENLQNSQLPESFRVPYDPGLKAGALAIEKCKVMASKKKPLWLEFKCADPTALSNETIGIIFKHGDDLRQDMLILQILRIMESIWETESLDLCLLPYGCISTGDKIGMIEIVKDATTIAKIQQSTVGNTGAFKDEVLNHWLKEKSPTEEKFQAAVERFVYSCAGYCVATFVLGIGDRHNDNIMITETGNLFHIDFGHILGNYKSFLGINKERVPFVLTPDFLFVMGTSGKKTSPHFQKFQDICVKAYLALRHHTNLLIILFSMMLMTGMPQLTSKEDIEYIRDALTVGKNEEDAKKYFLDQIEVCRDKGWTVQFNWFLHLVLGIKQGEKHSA
PI3Kβ, sequence (P42338 whole entry): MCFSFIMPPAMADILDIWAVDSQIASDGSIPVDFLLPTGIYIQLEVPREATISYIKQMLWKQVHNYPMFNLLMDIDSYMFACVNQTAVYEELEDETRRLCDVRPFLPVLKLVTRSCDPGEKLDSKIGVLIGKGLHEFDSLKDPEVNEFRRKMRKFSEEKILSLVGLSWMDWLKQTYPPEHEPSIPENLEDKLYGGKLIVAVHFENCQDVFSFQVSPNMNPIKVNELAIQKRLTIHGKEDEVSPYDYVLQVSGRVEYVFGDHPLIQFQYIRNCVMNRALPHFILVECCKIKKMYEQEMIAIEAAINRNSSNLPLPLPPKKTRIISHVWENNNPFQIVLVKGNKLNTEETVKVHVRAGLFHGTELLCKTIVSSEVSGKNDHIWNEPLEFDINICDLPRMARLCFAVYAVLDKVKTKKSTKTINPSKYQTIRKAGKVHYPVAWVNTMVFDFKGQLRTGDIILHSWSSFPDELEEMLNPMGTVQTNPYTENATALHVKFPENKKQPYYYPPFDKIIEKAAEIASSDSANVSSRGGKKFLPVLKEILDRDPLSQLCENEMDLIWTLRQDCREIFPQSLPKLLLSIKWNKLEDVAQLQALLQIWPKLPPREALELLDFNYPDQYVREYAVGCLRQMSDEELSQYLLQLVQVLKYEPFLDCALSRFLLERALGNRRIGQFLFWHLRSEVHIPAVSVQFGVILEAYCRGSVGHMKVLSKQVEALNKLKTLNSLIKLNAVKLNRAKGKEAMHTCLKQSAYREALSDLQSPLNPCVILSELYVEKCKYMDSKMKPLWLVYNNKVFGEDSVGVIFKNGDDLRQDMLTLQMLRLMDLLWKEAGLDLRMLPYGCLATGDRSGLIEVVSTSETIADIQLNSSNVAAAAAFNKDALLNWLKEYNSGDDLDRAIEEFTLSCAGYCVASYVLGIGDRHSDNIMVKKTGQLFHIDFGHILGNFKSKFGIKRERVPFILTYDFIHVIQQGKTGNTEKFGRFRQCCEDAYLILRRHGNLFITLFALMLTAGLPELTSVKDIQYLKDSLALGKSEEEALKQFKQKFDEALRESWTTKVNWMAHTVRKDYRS
PI3Kβ, sequence (P27986 whole entry partner): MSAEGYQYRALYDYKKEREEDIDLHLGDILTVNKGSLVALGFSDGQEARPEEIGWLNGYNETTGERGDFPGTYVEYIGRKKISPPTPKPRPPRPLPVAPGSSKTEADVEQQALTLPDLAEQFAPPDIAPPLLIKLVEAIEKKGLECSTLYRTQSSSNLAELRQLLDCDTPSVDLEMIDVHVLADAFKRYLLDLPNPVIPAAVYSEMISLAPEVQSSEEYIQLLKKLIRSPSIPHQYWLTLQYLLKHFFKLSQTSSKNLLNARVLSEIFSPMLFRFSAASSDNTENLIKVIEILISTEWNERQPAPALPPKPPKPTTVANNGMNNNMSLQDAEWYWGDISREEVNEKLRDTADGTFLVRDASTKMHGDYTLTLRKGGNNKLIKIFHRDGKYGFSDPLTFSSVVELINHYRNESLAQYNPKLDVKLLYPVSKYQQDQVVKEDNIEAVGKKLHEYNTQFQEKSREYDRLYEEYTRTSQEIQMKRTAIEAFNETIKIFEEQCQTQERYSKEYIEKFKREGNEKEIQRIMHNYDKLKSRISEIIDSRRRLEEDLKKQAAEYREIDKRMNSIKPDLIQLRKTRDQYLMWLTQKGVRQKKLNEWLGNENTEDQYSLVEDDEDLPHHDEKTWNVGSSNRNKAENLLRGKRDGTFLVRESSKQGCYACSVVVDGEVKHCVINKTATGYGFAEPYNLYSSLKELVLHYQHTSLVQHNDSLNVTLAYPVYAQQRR
PI3Kα, sequence (P42336 whole entry): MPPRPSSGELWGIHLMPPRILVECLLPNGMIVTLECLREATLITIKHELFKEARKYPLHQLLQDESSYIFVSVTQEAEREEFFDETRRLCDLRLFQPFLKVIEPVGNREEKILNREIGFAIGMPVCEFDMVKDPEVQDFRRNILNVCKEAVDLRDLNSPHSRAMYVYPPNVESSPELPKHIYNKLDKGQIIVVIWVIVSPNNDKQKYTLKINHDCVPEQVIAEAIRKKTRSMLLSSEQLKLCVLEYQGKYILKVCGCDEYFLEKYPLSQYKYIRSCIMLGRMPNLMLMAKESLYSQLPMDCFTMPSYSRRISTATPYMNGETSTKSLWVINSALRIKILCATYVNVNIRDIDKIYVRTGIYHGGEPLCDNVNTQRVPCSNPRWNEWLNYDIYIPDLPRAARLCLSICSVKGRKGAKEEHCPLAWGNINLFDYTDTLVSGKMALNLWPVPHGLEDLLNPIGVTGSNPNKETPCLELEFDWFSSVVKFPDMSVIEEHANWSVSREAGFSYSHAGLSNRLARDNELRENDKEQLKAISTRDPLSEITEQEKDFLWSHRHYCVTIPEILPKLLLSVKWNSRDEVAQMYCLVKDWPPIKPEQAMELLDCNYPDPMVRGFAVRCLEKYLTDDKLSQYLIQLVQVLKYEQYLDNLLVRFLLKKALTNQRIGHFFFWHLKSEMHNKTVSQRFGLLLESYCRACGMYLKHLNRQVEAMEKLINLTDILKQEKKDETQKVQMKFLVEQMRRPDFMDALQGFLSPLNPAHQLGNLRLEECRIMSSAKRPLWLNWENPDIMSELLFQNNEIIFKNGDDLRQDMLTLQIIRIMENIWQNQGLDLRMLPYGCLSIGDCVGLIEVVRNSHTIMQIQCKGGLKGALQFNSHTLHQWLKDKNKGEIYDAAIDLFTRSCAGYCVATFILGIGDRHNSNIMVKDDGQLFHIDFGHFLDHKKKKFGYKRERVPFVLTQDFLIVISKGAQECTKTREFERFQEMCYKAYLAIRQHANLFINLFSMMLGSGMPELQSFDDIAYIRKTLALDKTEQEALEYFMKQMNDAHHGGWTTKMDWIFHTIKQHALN
PI3Kα, sequence (P27986 whole entry partner): as the sequence (P27986 whole entry partner) above

With `CC(C)[C@H]1C(=O)N(C2CC2)C(=O)N1c1cn2c(n1)-c1ccc(N3CCC[C@H]3C(N)=O)cc1OCC2` [Crystal Form B-1, (S)-1-(2-((S)-3-cyclopropyl-5-isopropyl-2,4-dioxoimidazolidin-1-yl)-5,6-dihydrobenzo[f]imidazo[1,2-d][1,4]oxazepin-9-yl)pyrrolidine-2-carboxamide], the “Result: crystal form after tabletting” value in series [1] is given as “Form B-1”. Also, in series [2], the “XRPD pattern after grinding” value is “remained consistent with the original patterns”. The “mass gain (DVS)” value in the series “DVS assay” is recorded as 1.9%. The “Total impurity content of the related material” value (“Total impurity content” for short) in series [3] (Day 0) was 0.24%; in [3] (High humidity of 75%, Day 5), 0.25%; in series [3] (High humidity of 75%, Day 30), 0.29%; in series [3] (High humidity of 92.5%, Day 5), 0.23%; in series [3] (High humidity of 92.5%, Day 30), 0.24%; in series [3] (setting [7]), 0.26%. For the same compound, the “Total impurity content” value is 0.34% in [3] (setting [8]), 0.38% in series [3] (setting [9]) and 0.43% in [3] (setting [10]).

As to `CC(C)[C@H]1C(=O)N(C2CC2)C(=O)N1c1cn2c(n1)-c1ccc(N3CCC[C@H]3C(N)=O)cc1OCC2` [Crystal Form M, (S)-1-(2-((S)-3-cyclopropyl-5-isopropyl-2,4-dioxoimidazolidin-1-yl)-5,6-dihydrobenzo[f]imidazo[1,2-d][1,4]oxazepin-9-yl)pyrrolidine-2-carboxamide], the “Total impurity content” value in [3] (Day 0) is given as 0.12%; in [3] (High humidity of 75%, Day 5), 0.39%; in [3] (High humidity of 75%, Day 30), 0.61%; in [3] (High humidity of 92.5%, Day 5), 0.42%; in [3] (High humidity of 92.5%, Day 30), 0.61%; in series [3] (setting [7]), 0.55%. In addition, the entries for the “Total impurity content” value in [3] (setting [8]), in series [3] (setting [9]) and in series [3] (setting [10]) were 0.53%, 0.70% and 0.64%, respectively.

As to `Cc1nc(-c2cn3c(n2)-c2ccc(-c4cnn(C(C)(C)C(N)=O)c4)cc2OCC3)n(C(C)C)n1` [Taselisib], the “selectivity for the α-subunit compared to the β-subunit” value in [4] is 31 fold.

With `CC(C)[C@H]1C(=O)N(C2CC2)C(=O)N1c1cn2c(n1)-c1ccc(N3CCC[C@H]3C(N)=O)cc1OCC2` [Compound 1, (S)-1-(2-((S)-3-cyclopropyl-5-isopropyl-2,4-dioxoimidazolidin-1-yl)-5,6-dihydrobenzo[f]imidazo[1,2-d][1,4]oxazepin-9-yl)pyrrolidine-2-carboxamide], the IC50 is ≤ 5 nM at PI3Kα, > 600 nM at PI3Kβ, > 600 nM on PI3Kγ and 47 nM in the series on MCF-7 cells.

`CC(C)[C@H]1C(=O)N(C2CC2)C(=O)N1c1cn2c(n1)-c1ccc(N3CCC[C@H]3C(N)=O)cc1OCC2` [Crystal Form C, (S)-1-(2-((S)-3-cyclopropyl-5-isopropyl-2,4-dioxoimidazolidin-1-yl)-5,6-dihydrobenzo[f]imidazo[1,2-d][1,4]oxazepin-9-yl)pyrrolidine-2-carboxamide] had an AUC in series [5] of 36600 ng·h/mL. Besides, in series [5], the Cmax is 3700 ng/mL. Besides, the “Result: crystal form after tabletting” value in [1] is listed as “Form C”. The “XRPD pattern after grinding” value in series [2] is on record as “remained consistent with the original patterns”. Moreover, in “DVS assay”, the “mass gain (DVS)” value was found to be 0.7%. The “Total impurity content” value in series [3] (Day 0) is 0.07%; in series [3] (High humidity of 75%, Day 5) it was 0.07%; in series [3] (High humidity of 75%, Day 30) it was 0.07%; in series [3] (High humidity of 92.5%, Day 5), 0.07%; in [3] (High humidity of 92.5%, Day 30), 0.07%; in [3] (setting [7]) it was 0.07%. For the same compound, the “Total impurity content” value turned out to be 0.10% in [3] (setting [8]), 0.08% in series [3] (setting [9]) and 0.10% in series [3] (setting [10]). Also, the “change of testing indexes compared with day 0, long-term test” value in series [6] (25° C. ± 2° C., RH60% ± 5%, 6 months) is “no significant change”. Further, the “change of testing indexes compared with day 0, accelerated test” value in series [6] (40° C. ± 2° C., RH75%, 6 months) is recorded as “no significant change”. The “change in characteristics, content, crystal form and isomer compared with day 0” value in series [6] (uncovered, high temperature (40° C., 60° C.) or high humidity (75%, 92.5%), 30 days) is recorded as “no significant change”.
